Data published in US20050074447A1, “Treatment for diabetic microvascular and macrovascular complications” (priority 2003, published 2005).
“Also recorded” adds a separate entry of the source.

Columns and labels:
rat INS-1 β-cells = test: MTS cell viability: protection of INS-1 β-cells from STZ, Example 3; format: cell-based; conditions: for protection of INS-1 cells from STZ (relative viability): different concentrations of alpha- or gamma-tocopherol, overnight pre-incubation, then 24 hours with STZ 1 mM
Protocol: INS-1 cells were cultured overnight in 96 well culture plates in a humidified incubator at 37° C., in the presence or absence of different concentrations of alpha- or gamma-tocopherol and then in the presence of a combination of equimolar parts of gamma- and alpha-tocopherol (25 μM gamma-, 25 μM alpha-tocopherol). The cells at each condition were then cultured for an additional 24 hours either in the presence or absence of STZ (1 mM). Alpha-tocopherol and gamma-tocopherol concentrations in each well were kept the same as those used in the pre-incubation phase. Cell viability was measured with the MTS assay. Results were normalized and values were expressed relative to control (relative viability).

[1] = tested on: Retinal endothelial cells; test: MTS cell viability: protection of retinal endothelial cells from 25 mM glucose and 2 mM palmitate, Example 2; format: cell-based, Rhesus monkey; conditions: tocopherol used alone; overnight pre-incubation, then 8 hours with 25 mM glucose and 2 mM palmitate
Protocol: Retinal endothelial cells were cultured overnight in 96 well culture plates in a humidified incubator at 37° C., in the presence or absence of either 50 μM of alpha-tocopherol, 50 μM of gamma-tocopherol or 25 μM alpha-tocopherol plus 25 μM gamma-tocopherol when used in combination. The cells at each condition were then cultured for an additional 8 hours either in the presence or absence of 25 mM glucose and 2 mM palmitate. Alpha-tocopherol and gamma-tocopherol concentrations in each well were kept the same as those used in the pre-incubation phase. Cell viability was measured with the MTS assay. Results were normalized and values were expressed relative to basal glucose control (relative viability).

[2] = tested on: Rhesus monkey retinal endothelial cells (ATCC CRL-1780); test: MTS cell viability of retinal endothelial cells exposed to hyperglycemia and elevated FFA (palmitate), Example 1; format: cell-based; conditions: hyperglycemia (25 mM glucose) and elevated FFA (1 and 2 mM palmitate), overnight
Protocol: Rhesus monkey retinal endothelial cells (ATCC CRL-1780) were cultured overnight in 96 well culture plates in a humidified incubator at 37° C., under either basal (5 mM) or hyperglycemic (25 mM) conditions in the absence FFA or in with a 1 and 2 mM palmitate concentration illustrating an elevated FFA environment. At the end of the incubation period endothelial cell viability was measured with the MTS assay and results were expressed relative to the control (5 mM glucose no FFA). The results are shown in Table 1, where error bars represent standard deviations from the mean of triplicate measurements per condition. The relative viability of endothelial cells exposed to hyperglycemia and elevated FFA, as compared to the control, was about 45%. The data in Table 1 illustrates that FFA are cytotoxic to retinal endothelial cells and that their cytotoxicity is enhanced by hyperglycemia. [drawing]

CN(N=O)C(=O)N[C@@H]1[C@@H](O)[C@H](O)[C@@H](CO)O[C@@H]1O [STZ]
effect of STZ on viability of INS-1 cells (rat INS-1 β-cells; STZ 1 mM, 24 hours): reduced viability

Cc1c(C)c2c(c(C)c1O)CC[C@@](C)(CCC[C@H](C)CCC[C@H](C)CCCC(C)C)O2 [alpha-tocopherol]
relative cell viability (relative to basal glucose control) [1]: 40 to 50%
protection of INS-1 cells from STZ (relative viability) (rat INS-1 β-cells): protected from these effects in a dose dependent manner

Cc1c(O)cc2c(c1C)O[C@](C)(CCC[C@H](C)CCC[C@H](C)CCCC(C)C)CC2 [gamma-tocopherol]
protection of INS-1 cells from STZ (relative viability) (rat INS-1 β-cells): protected from these effects in a dose dependent manner; also recorded: more effective than alpha-tocopherol

CCCCCCCCCCCCCCCC(=O)O [palmitate]
relative viability of endothelial cells as compared to the control (5 mM glucose no FFA) [2]: about 45%
